Laboratory results reported in patent EP4302767A1, “OPHTHALMIC COMPOSITION COMPRISING ERIOCITRIN” (Skeye Pharma GmbH, priority 2022, dated 2024).

How the values were obtained:
[1] = system: Human corneal epithelial cells (hCEC); test: BrdU cell proliferation ELISA; type: cell-based
Experimental: (§1) Proliferation of hCEC was determined using a 5-bromo-2'-deoxyuridine (BrdU) ELISA in accordance with the manufacturers' recommendations (Merck KGaA, Darmstadt, Germany). In brief, approximately 7,000 cells were seeded onto a 96-well cell culture plate and incubated for 24h to achieve complete adherence of the cells. After 24 hours of incubation with 100 µl of corneal epithelial cell growth medium without its' supplement mix, hCECs were treated with eriocitrin and/or SCH772984 (Selleckchem, Houston, TX, USA), an inhibitor of ERK1/2 phosphorylation, both dissolved in DMSO. Following another 24 hours of incubation with BrdU labeling solution, cells were fixed and incubated with anti-BrdU antibodies according to the manufacturer's recommendations. BrdU incorporation into the DNA of hCECs was quantified by absorbance measurement at 450 nm.

ERK1/2 = test: Western blot of ERK1/2 phosphorylation in corneal epithelial cells; type: cell-based; conditions: Homo sapiens, Corneal epithelial cell, 1 hour, compared to DMSO-only control, Fig. 4, read-out: pERK1/2 protein expression
Experimental: To analyze whether eriocitrin activates the extracellular signal-regulated kinase-1 and -2 (ERK1/2), human corneal epithelial cells were treated with 10 µM eriocitrin for 1 hour. Corneal proteins were isolated in radioimmunoprecipitation assay (RIPA) buffer. Protein concentration was measured with a bicinchoninic acid (BCA) assay according to the manufacturer's instructions (Thermo Fisher Scientific, Waltham, MA, USA). Up to 25 µg of total proteins were subjected to 8% SDS-PAGE. Following gel electrophoresis proteins were transferred onto a polyvinylidine fluoride (PVDF) membrane (Roche Holding, Basel, Switzerland) by semidry blotting. After blocking with 3% low fat milk in PBS-Tween (PBS-T) for one hour, membranes were incubated overnight with a rabbit-anti-pERK1/2 (1:1000; Cell Signaling Technology, Danvers, MA, USA) in PBS-T with 0.3% low fat milk. Alkaliphosphatase-conjugated mouse-anti-rabbit antibodies (1:1000, Jackson Immunoresearch Europe, UK) were used as secondary antibodies. Antibody hybridization was visualized using the CDP-Star substrate (Thermo Fisher) and documented with the Western Blot Reader iBright CL 1000 (Thermo Fisher). As a loading control, AP-conjugated anti-alpha-tubulin antibodies were used (1:1000, Merck). The densitometry of Western blot analyses was performed with the iBright Image software v.1.4.0 software (Thermo Fisher).

[2] = system: Human corneal epithelial cells (hCEC); test: Oxidative stress model (H2O2) with BrdU proliferation assay; type: cell-based; conditions: 24 h, Fig. 3, read-out: cell proliferation
Experimental: as §1
To determine potential anti-oxidative effects of eriocitrin, hCECs were incubated and treated analogous to the above-mentioned BrdU ELISA with minor modifications. To induce oxidative stress, hydrogen peroxide (H2O2) in a concentration of 100 µM was added to the treatment groups and an additional H2O2-only group was tested. Following another incubation of the hCECs for 24 hours, the BrdU assay was further performed according to the description above.

[3] = system: Human corneal epithelial cells (hCEC); test: Cell scratch (wound healing / migration) assay in vitro; type: cell-based; conditions: 10 µM, Fig. 2
Experimental: To analyze hCEC migration in vitro, cells were cultured in corneal epithelial cell growth medium with supplement mix until confluence of the cells of a 6-well cell culture plate. Following an incubation period of 24 hours in cell culture medium without supplements, 5 linear scratches were performed in each well using a 200 µl pipette tip (Eppendorf AG, Hamburg, Germany). The hCECs were then incubated prospectively under treatment with eriocitrin or DMSO as a control for up to 48 hours. Reference images were acquired at the beginning of the incubation period using the phase contrast mode on an Axio Observer 7 (Carl Zeiss AG, Jena, Germany). Every 24 hours, follow-up images of different scratch sections were acquired. The size of the wound area was analyzed using a semi-automated analysis tool in ImageJ 1.53a (National Institute of Health, Bethesda, MD, USA).

[4] = 80°C for 30 min, pH 7; cited from earlier work
[5] = system: Human corneal epithelial cells (hCEC); test: WST-1 cell viability assay; type: cell-based; conditions: any of the concentrations tested, 72 hours, compared to DMSO control; Fig. 1A
Experimental: (§2) Human corneal epithelial cells (hCEC; SCCE016; Merck Millipore, Burlington, MA, USA) were cultured in corneal epithelial cell growth medium with supplement mix (LGC Standards, Teddington, United Kingdom). Approximately 10,000 hCECs were seeded onto each well of a 96-well cell-culture dishes (NUNC, Langenselbold, Germany). After 24 hours of incubation with 100 µl of corneal epithelial cell growth medium without its' supplement mix (LGC Standards, Teddington, United Kingdom), hCECs were treated with different concentrations of eriocitrin (EC; Selleckchem, Houston, TX, USA) dissolved in dimethyl sulfoxide (DMSO; Carl Roth AG, Karlsruhe, Germany). Control groups were treated with DMSO only. Following another 72 hours of incubation, the cells were incubated with the water-soluble tetrazolium salt (WST-1; Hoffmann-La Roche AG, Basel, Switzerland) solution for 30 minutes. Substrate turnover was measured with an ELISA reader at 450 nm (Spectramax 190; Molecular Devices, Sunnyvale, CA, USA) and a reference at 690 nm.

[6] = WST-1 cell viability assay; type: cell-based, Human; conditions: human, corneal epithelial cells, 0.5 µM, DMSO control = 100 ± 12%, mean ± SD
Experimental: as §2

[7] = 'it is believed'; basis not stated; cited from earlier work

SMILES: O=C(Nc1ccc2[nH]nc(-c3ccncc3)c2c1)[C@@H]1CCN(CC(=O)N2CCN(c3ccc(-c4ncccn4)cc3)CC2)C1 [SCH772984, reference compound]
- effect on eriocitrin-enhanced proliferation of corneal epithelial cells ([1]; 100 nM added to 10 µM eriocitrin, 24 hours, Fig. 5): completely blocked

SMILES: C[C@@H]1O[C@@H](OC[C@H]2O[C@@H](Oc3cc(O)c4c(c3)O[C@H](c3ccc(O)c(O)c3)CC4=O)[C@H](O)[C@@H](O)[C@@H]2O)[C@H](O)[C@H](O)[C@H]1O [eriocitrin, (2S)-3',4',5-trihydroxy-7-[α-L-rhamnopyranosyl-(1→6)-β-D-glucopyranosyloxy]flavan-4-one]
- fold induction at 10 µM (ERK1/2): 1.8 ± 0.9
- activity at 5 µM ([2]; 5 µM added to 100 µM H2O2, 24 hours, H2O2 control 81 ± 12%): 113 ± 9%
- activity at 5 µM ([2]; 5 µM, 24 hours, without H2O2, compared to DMSO control): 117 ± 8%
- activity at 10 µM ([2]; 10 µM added to 100 µM H2O2, 24 hours, H2O2 control 81 ± 12%): 115 ± 18%
- activity at 10 µM ([2]; 10 µM, 24 hours, without H2O2, compared to DMSO control): 125 ± 18%
- proliferation ([1]; 10 µM eriocitrin plus 100 nM SCH772984, 24 hours, Fig. 5): 104 ± 9%
- proliferation ([1]; 10 µM, 24 hours, compared to DMSO treated controls, Fig. 5): 129 ± 11%
- activity at 0.5 µM ([1]; Homo sapiens, HCEC, 0.5 µM, 24 hours, DMSO control = 100 ± 17%, Fig. 1B): 118 ± 39%
- activity at 1 µM ([1]; Homo sapiens, HCEC, 1 µM, 24 hours, DMSO control = 100 ± 17%, Fig. 1B): 126 ± 33%
- activity at 2.5 µM ([1]; Homo sapiens, HCEC, 2.5 µM, 24 hours, DMSO control = 100 ± 17%, Fig. 1B): 127 ± 29%
- activity at 5 µM ([1]; Homo sapiens, HCEC, 5 µM, 24 hours, DMSO control = 100 ± 17%, Fig. 1B): 143 ± 36%
- activity at 10 µM ([1]; Homo sapiens, HCEC, 10 µM, 24 hours, DMSO control = 100 ± 17%, Fig. 1B): 162 ± 49%
- scratched hCEC area, difference to DMSO-only control ([3]; 24 hours of incubation, p > 0.9999): slight difference
- remaining wound area ([3]; 48 hours of incubation, control 71.9 ± 7.7%): 64.5 ± 7.8%
- eriocitrin molecules remain intact [4]: 60%
- toxic effects on corneal epithelial cell viability [5]: did not show any toxic effects
- viability at 72 h, 0.5 µM [6]: 110 ± 14%

SMILES: COc1cc(O)c(CC=C(C)C)c(O)c1C(=O)/C=C/c1ccc(O)cc1 [xanthohumol, 1-[2,4-Dihydroxy-6-methoxy-3-(3-methyl-but-2-enyl)-phenyl]-3-(4-hydroxyphenyl)-propenon]
- first pka [7]: about 7
